Experimental findings from patent US11059795B2, “Androgen receptor modulators and methods for their use” (ESSA Pharma, Inc., priority 2018, dated 2021) are described below.

The structures appear in SMILES notation. Counter-ions that a name gives are not always drawn.

One data set concerns the target T1, androgen receptor (AR) (Homo sapiens, UniProt P10275, T878A).
T1 construct: LNCaP cells were transiently transfected with the PSA (6.1 kb)-luciferase reporter for 24 h; endogenous in cells; host or cells: LNCaP
T1 sequence (P10275 1-920 T878A): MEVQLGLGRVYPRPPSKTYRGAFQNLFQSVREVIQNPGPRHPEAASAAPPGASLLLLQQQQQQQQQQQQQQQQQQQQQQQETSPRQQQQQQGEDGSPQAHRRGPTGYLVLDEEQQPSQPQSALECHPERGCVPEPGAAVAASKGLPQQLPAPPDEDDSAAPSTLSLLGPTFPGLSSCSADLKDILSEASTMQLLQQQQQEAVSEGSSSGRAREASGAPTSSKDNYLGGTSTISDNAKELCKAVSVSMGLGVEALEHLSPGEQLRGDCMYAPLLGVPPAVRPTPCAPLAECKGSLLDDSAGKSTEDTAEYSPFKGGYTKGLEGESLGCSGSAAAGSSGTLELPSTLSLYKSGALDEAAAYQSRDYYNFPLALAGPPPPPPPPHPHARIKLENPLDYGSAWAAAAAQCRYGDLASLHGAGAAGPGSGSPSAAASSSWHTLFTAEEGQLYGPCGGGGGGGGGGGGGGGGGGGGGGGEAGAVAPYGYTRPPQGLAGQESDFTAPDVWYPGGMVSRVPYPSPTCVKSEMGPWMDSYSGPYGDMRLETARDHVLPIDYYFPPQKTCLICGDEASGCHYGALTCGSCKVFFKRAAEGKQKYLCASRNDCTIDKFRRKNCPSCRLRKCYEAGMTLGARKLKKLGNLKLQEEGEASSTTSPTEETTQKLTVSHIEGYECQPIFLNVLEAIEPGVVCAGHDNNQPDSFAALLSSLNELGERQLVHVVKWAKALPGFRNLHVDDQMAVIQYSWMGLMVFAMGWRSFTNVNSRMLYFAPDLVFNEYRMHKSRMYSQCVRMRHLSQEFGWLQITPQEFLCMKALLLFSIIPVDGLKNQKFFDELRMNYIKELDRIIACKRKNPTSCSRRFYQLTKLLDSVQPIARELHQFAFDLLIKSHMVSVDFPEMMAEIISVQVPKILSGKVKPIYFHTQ
Kind of data set: Androgen-induced PSA (6.1 kb)-luciferase reporter assay in LNCaP cells. In kind it is cell-based. As to conditions: LNCaP cells transfected with PSA (6.1 kb)-luciferase reporter, R1881 1 nM, 24 h; read-out: PSA-Luc IC50 Range. The protocol: The PSA (6.1 kb)-luciferase reporter contains functional AREs (androgen response elements) to which AR binds in response to androgen to induce luciferase activity.
Cells were lysed using Passive Lysis Buffer (Promega) and then collected into V-bottom 96-well tissue culture plates. Lysates were centrifuged at 4° C. for 5 minutes at 3000 rpm. To measure luminescence of LNCaP cell lysates the Firefly Luciferase Assay System (Promega) was employed, according to manufacturer's protocol. Relative luminescence units (RLU) in cell lysates were detected for 10 seconds using Promega GloMax-Multi Detection Luminometer (Promega). Values were normalized to protein content. GraphPad Prism graphing software was used to calculate IC50 values.
Comparisons between treatment and control groups were compared using Two-Way ANOVA with post-hoc Dunnett's and Tukey's tests. Differences were considered statistically significant at P values less than 0.05.
In general terms: Reporter assays use an easily measured gene product as a stand-in for the process of interest.

Data set [1] is described as follows: Microsomal stability assay, mouse liver microsomes. It is filed as in vitro ADME. The conditions noted are these: mouse, liver microsomes, pH 7.4, mouse liver microsomes, 1 μM compound, 0.5 mg/mL protein, 37° C.; read-out: MLM +30/− NADPH: Clint (μL/min/mg protein). How it is done:
(§1) Microsomal stability assay is a widely used in vitro model to characterize the metabolic conversion by phase I enzymes, such as cytochrome P450 (CYP) enzymes. Since metabolism is known to be highly variable in different species, microsomal stability assay is commonly run in multiple species. Metabolic stability of testing compound can be evaluated using human, rat, mouse, or other animal liver or intestine microsomes to predict intrinsic clearance.
(§2) The assay was carried out in 96-well microtiter plates at 37° C. Reaction mixtures (25 μL) contained a final concentration of 1 μM test compound, 0.5 mg/mL liver microsomes protein, and 1 mM NADPH and/or 1 mM UDPGA (with alamethicin) in 100 mM potassium phosphate, pH 7.4 buffer with 3 mM MgCl2. The incubation was done with N=1, but duplicate incubation at each time point can be prepared if necessary. At each of the time points (for example, 0, 15, 30, and 60 minutes), 150 μL of quench solution (100% acetonitrile with 0.1% formic acid) with internal standard was transferred to each well. Besides the zero minute controls, mixtures containing the same components except the NADPH can also be prepared as the negative control. Verapamil was included as a positive control to verify assay performance. Plates were sealed, vortexed, and centrifuged at 4° C. for 15 minutes at 4000 rpm. The supernatant is transferred to fresh plates for LC/MS/MS analysis.
(§3) Summarized conditions: [Compound]=[…], [LM]=0.5 mg/mL, [NADPH]=1 mM and/or [UDPGA]=1 mM, Buffer=100 mM Potassium Phosphate, pH 7.4 with 3 mM MgCl2, Time=0, 15, 30, and 60 min, and Temperature=37° C.
(§4) All samples were analyzed on LC/MS/MS using an AB Sciex API 4000 instrument, coupled to a Shimadzu LC-20AD LC Pump system. Analytical samples were separated using a Waters Atlantis T3 dC18 reverse phase HPLC column (20 mm×2.1 mm) at a flow rate of 0.5 mL/min. The mobile phase consisted of 0.1% formic acid in water (solvent A) and 0.1% formic acid in 100% acetonitrile (solvent B).
(§5) The extent of metabolism is calculated as the disappearance of the test compound, compared to the 0-min time incubation. Initial rates are calculated for the compound concentration and used to determine half-life (t½) values and subsequently, the intrinsic clearance (Clint). Clint=(0.693)(1/t½ (min))(g of liver/kg of body weight)(mL incubation/mg of microsomal protein)(45 mg of microsomal protein/g of liver weight)
For orientation: Microsomes from liver hold many membrane-bound enzymes, among them those of drug oxidation.

Data set [2] in a line: Microsomal stability assay, human liver microsomes. In kind it is in vitro ADME. The conditions noted are these: pH 7.4, 1 μM compound, 0.5 mg/mL protein, 37° C., read-out: HLM +/− NADPH: Clint (μL/min/mg protein). The protocol: as §1, §2, §3, §4, §5

`CC(C)(c1ccc(OCc2ocnc2S(C)(=O)=O)cc1)c1cc(Cl)c(OCCCCl)c(Cl)c1` [Compound A3, 5-[[4-[1-[3,5-dichloro-4-(3-chloropropoxy)phenyl]-1-methyl-ethyl]phenoxy]methyl]-4-methylsulfonyl-oxazole]: at androgen receptor (AR), the IC50 (in general, the concentration that gives 50% inhibition) is 500 to 2000 nM. The microsomal CLint at 1 μM in data set [1] and in data set [2] was below 12 µL/min/mg throughout.
In the case of `CC(C)(c1cnc(NCc2ocnc2S(C)(=O)=O)nc1)c1cc(Cl)c(OCCCl)c(Cl)c1` [Compound A27], the IC50 on androgen receptor (AR) is above 2000 nM. In addition, the microsomal CLint at 1 μM in data set [1] is at least 48 µL/min/mg; in data set [2], below 12 µL/min/mg.
As for `CC(C)(c1cc(Cl)c(OCCCl)c(Cl)c1)c1ccc(OCc2ocnc2S(C)(=O)=O)c(C#N)c1` [Compound A30], the IC50 on androgen receptor (AR) lay within 500 to 2000 nM. Further, the microsomal CLint at 1 μM in data set [1] and in data set [2] was 12 to 48 µL/min/mg throughout.
On to `CC(C)(c1ccc(NCc2ocnc2S(C)(=O)=O)cc1)c1cc(Cl)c(OCCCl)c(Cl)c1` [Compound A32, 4-(2-(3,5-dichloro-4-(2-chloroethoxy)phenyl)propan-2-yl)-N-((4-(methylsulfonyl)oxazol-5-yl)methyl)aniline Hydrochloride], for which, on androgen receptor (AR), the IC50 was above 2000 nM. Besides, the microsomal CLint at 1 μM in data set [1] was at least 48 µL/min/mg; in data set [2], 12 to 48 µL/min/mg.
Regarding `Cc1nc(S(C)(=O)=O)c(COc2ccc(C(C)(C)c3cc(Cl)c(OCCCl)c(Cl)c3)cc2)o1` [Compound A34], on androgen receptor (AR), the IC50 lay within 500 to 2000 nM. Besides, the results for the microsomal CLint at 1 μM in data set [1] and in data set [2] were 12 to 48 µL/min/mg and below 12 µL/min/mg, respectively.
For `CC(C)(c1ccc(OCc2nccc(NS(C)(=O)=O)n2)cc1)c1cc(Cl)c(OCCCl)c(Cl)c1` [Compound A42], at androgen receptor (AR), the IC50 was in the range of 500 to 2000 nM. Also, the microsomal CLint at 1 μM in data set [1] and in data set [2] was below 12 µL/min/mg each time.
`CC(C)(c1ccc(OCc2ocnc2C(N)=O)cc1)c1cc(Cl)c(OCCCl)c(Cl)c1` [Compound A45]: at androgen receptor (AR), the IC50 fell in the range of 500 to 2000 nM. Further, the microsomal CLint at 1 μM in data set [1] and in data set [2] was below 12 µL/min/mg throughout.
As to `CC(C)(c1ccc(NC(=O)c2coc(NS(C)(=O)=O)n2)cc1)c1cc(Cl)c(OCCCl)c(Cl)c1` [Compound A49, N-(4-(2-(3,5-Dichloro-4-(2-chloroethoxy)phenyl)propan-2-yl)phenyl)-2-(methylsulfonamido)oxazole-4-carboxamide], the half-inhibitory concentration (IC50) at androgen receptor (AR) is above 2000 nM. Further, the microsomal CLint at 1 μM in data set [1] was below 12 µL/min/mg; in data set [2], 12 to 48 µL/min/mg.
The matching figures for `CC(C)(c1ccc(OCc2cnc(S(C)(=O)=O)o2)cc1)c1cc(Cl)c(OCCCl)c(Cl)c1` [Compound A57]: below 500 nM, at least 48 µL/min/mg and 12 to 48 µL/min/mg.
Turning to `CC(C)(c1ccc(OCc2ocnc2C#N)cc1)c1cc(Cl)c(OCCCl)c(Cl)c1` [Compound A65], the IC50 at androgen receptor (AR) lay in the range of 500 to 2000 nM. The microsomal CLint at 1 μM in data set [1] and in data set [2] was 12 to 48 µL/min/mg in each case.
Turning to `CC(C)(c1ccc(OCc2coc(S(C)(=O)=O)n2)cc1)c1cc(Cl)c(OCCCl)c(Cl)c1` [Compound A68], the IC50 at androgen receptor (AR) is below 500 nM. Further, the microsomal CLint at 1 μM in data set [1] and in data set [2] was below 12 µL/min/mg throughout.
Take `CC(C)(c1ccc(NC(=O)c2ocnc2S(C)(=O)=O)cc1)c1cc(Cl)c(OCCCl)c(Cl)c1` [Compound A73]: at androgen receptor (AR), the IC50 fell in the range of 500 to 2000 nM. The microsomal CLint at 1 μM in data set [1] and in data set [2] was below 12 µL/min/mg each time.
In the case of `CC(C)(c1ccc(Nc2ncc(CNS(C)(=O)=O)o2)cc1)c1cc(Cl)c(OCCCl)c(Cl)c1` [Compound A75, N-((2-((4-(2-(3,5-Dichloro-4-(2-chloroethoxy)phenyl)propan-2-yl)phenyl)amino)oxazol-5-yl)methyl)methanesulfonamide], the IC50 on androgen receptor (AR) fell in the range of 500 to 2000 nM. Also, the microsomal CLint at 1 μM in data set [2] is below 12 µL/min/mg.
As for `CC(C)(c1cc(Cl)c(OCCCl)c(Cl)c1)c1ccc(OCc2ocnc2S(C)(=O)=O)c(C(N)=O)c1` [Compound A76], the IC50 on androgen receptor (AR) was 500 to 2000 nM. Further, the microsomal CLint at 1 μM in data set [2] was below 12 µL/min/mg.
For `CC(O)(c1ccc(OCc2ocnc2S(C)(=O)=O)cc1)c1cc(Cl)c(OCCCl)c(C#N)c1` (centres unmarked) [Compound A77], at androgen receptor (AR), the IC50 was 500 to 2000 nM. The microsomal CLint at 1 μM is at least 48 µL/min/mg in data set [1] and 12 to 48 µL/min/mg in data set [2].
For `Cn1c(COc2ccc(C(C)(C)c3cc(Cl)c(OCCCl)c(Cl)c3)cc2)cnc1S(C)(=O)=O` [Compound A78], the IC50 on androgen receptor (AR) is 500 to 2000 nM. The microsomal CLint at 1 μM in data set [1] and in data set [2] was below 12 µL/min/mg in each case.
`CC(C)(c1ccc(OCc2n[nH]cc2NS(=O)(=O)C(F)(F)F)cc1)c1cc(Cl)c(OCCCl)c(Cl)c1` [Compound A106]: the IC50 on androgen receptor (AR) is below 500 nM. For the same molecule, the microsomal CLint at 1 μM in data set [2] was in the range of 12 to 48 µL/min/mg.
Regarding `C[C@@](O)(c1ccc(OCc2ocnc2S(C)(=O)=O)cc1)c1cc(Cl)c(OCCCl)c(C#N)c1` [Compound A107], at androgen receptor (AR), the IC50 was above 2000 nM. Also, the microsomal CLint at 1 μM in data set [2] was in the range of 12 to 48 µL/min/mg.
As to `COc1c(Cl)cc(C(C)(C)c2ccc(OCc3coc(NS(C)(=O)=O)n3)cc2)cc1C#N` [Compound A161], the microsomal CLint at 1 μM in data set [1] and in data set [2] was below 12 µL/min/mg each time.
As to `CC(C)(c1ccc(OCc2nc(C(N)=O)co2)cc1)c1cc(Cl)c(OCCCl)c(C#N)c1` [Compound A173], on androgen receptor (AR), the half-inhibitory concentration (IC50) is above 2000 nM. Further, the microsomal CLint at 1 μM in data set [1] and in data set [2] was below 12 µL/min/mg throughout.
For the molecule `CC(C)(c1ccc(OCc2nc(C#N)co2)cc1)c1cc(Cl)c(OCCCl)c(C#N)c1` [Compound A174], on androgen receptor (AR), the half-inhibitory concentration (IC50) was 500 to 2000 nM. Further, the microsomal CLint at 1 μM is 12 to 48 µL/min/mg in data set [1] and below 12 µL/min/mg in data set [2].
As for `CC(C)(c1ccc(N2C(=O)N(N)C(C)(C)C2=O)cc1)c1cc(Cl)c(OCCCl)c(Cl)c1` [Compound B6], the IC50 at androgen receptor (AR) is above 2000 nM. Moreover, in data set [2], the microsomal CLint at 1 μM lay in the range of 12 to 48 µL/min/mg.
`CN1C(=O)N(Cc2ccc(C(C)(C)c3cc(Cl)c(OCCCl)c(Cl)c3)cc2C#N)C(=O)C1(C)C` [Compound B8]: the IC50 on androgen receptor (AR) is 500 to 2000 nM. Also, the microsomal CLint at 1 μM in data set [2] was at least 48 µL/min/mg.
